13 compounds from patent US11149031B2, “Substituted N-(3-fluoropropyl)-pyrrolidine compounds, processes for their preparation and therapeutic uses thereof” (SANOFI, priority 2016, dated 2021) can be followed below.

Like-named read-outs stand apart in the source and are kept apart here. A value given as a limit tells only on which side of the number the result lay.

Test [1] concerns MCF7 cells expressing mutant estrogen receptor Asp 538 Gly. In words: Test B: cell proliferation/viability assay (CellTiter-Glo) on MCF7 Asp 538 Gly mutant. It is filed as cell-based. To be noted: Homo sapiens, MCF7, 168 h, MCF7 cells expressing ER Asp 538 Gly mutant, 7 days of compound exposure, read-out: proliferation MCF7 D538G IC50. The procedure, abridged:
(§1)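 Seven-day compound exposure, 9 concentrations from 3 to 0.000001 μM, in phenol red-free medium with 5% charcoal-stripped serum. ER Tyr537Ser and Asp538Gly lines derive from transfected MCF7 selected to grow without estradiol. Viability from CellTiter-Glo luminescence, background-corrected, as percent of untreated.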
(In ATP-based viability assays light output follows the ATP content of the culture.)

Test [2] addresses His6-ERα298-554 D538G mutant (ERα ligand-binding domain) (Homo sapiens (Human), UniProt P03372, D538G). In words: Test A: biochemical antagonist activity, LanthaScreen TR-FRET ERα coactivator assay, D538G mutant. To be noted: read-out: Antagonism D538G IC50. Summed up: (§2)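 His6-ERα LBD (0.5 nM) with 0.5 nM Tb-anti-His6 antibody, 250 nM PGC1a peptide and 3 nM (or 10 nM) estradiol in 100 mM potassium phosphate pH 7.4 with 5 mM DTT, incubated overnight at room temperature with compound.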
(In general: Time-resolved FRET reads energy transfer from a long-lived donor to a nearby acceptor.)

Test [3] deals with His6-ERα298-554 WT (ERα ligand-binding domain) (Homo sapiens (Human), UniProt P03372). The test can be described thus: Test A: biochemical antagonist activity, LanthaScreen TR-FRET ERα coactivator assay, WT. To be noted: read-out: Antagonism WT IC50. The procedure, abridged: as §2
Test [4] concerns the target His6-ERα298-554 Y537S mutant (ERα ligand-binding domain) (Homo sapiens (Human), UniProt P03372, Y537S). The test can be described thus: Test A: biochemical antagonist activity, LanthaScreen TR-FRET ERα coactivator assay, Y537S mutant. To be noted: read-out: Antagonism Y537S IC50. The procedure, abridged:
as §2

The subject of test [5] is MCF7 cells expressing mutant estrogen receptor Tyr 537 Ser. The test can be described thus: Test B: cell proliferation/viability assay (CellTiter-Glo) on MCF7 Tyr 537 Ser mutant. It is filed as cell-based. To be noted: Homo sapiens, MCF7, 168 h, MCF7 cells expressing ER Tyr 537 Ser mutant, 7 days of compound exposure, read-out: proliferation MCF7 Y537S IC50. The procedure, abridged: as §1

The next test has as its target ERα in MCF7 cells (Homo sapiens (Human), UniProt P03372). The test can be described thus: Test C: estrogen receptor degradation activity, ERα in cell western assay in MCF7 cells. It is filed as cell-based. To be noted: for DC50: 4 hours post compound addition, ERα in cell western, read-out: Degradation IC50; for % Degradation at 3 μM: 4 hours, relative to fulvestrant. Summed up:
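In-cell western: ERα level (green) against DNA stain Syto-64 (red) by integrated intensity. MCF7 cells in hormone-depleted medium exposed 4 h to compound at 3-0.000018 μM final (1:5 series); fulvestrant 0.1 μM as positive control.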

In test [6] the test system is MCF7 cells (breast tumor cells) WT. In words: Test B: cell proliferation/viability assay (CellTiter-Glo) on MCF7 WT. It is filed as cell-based. To be noted: Homo sapiens, MCF7, 168 h, 7 days of compound exposure. Summed up: as §1
[7] abbreviates: asterisk (*): protocol using 10 nM estradiol.

His6-ERα298-554 D538G mutant (ERα ligand-binding domain), sequence (P03372 298-554 D538G): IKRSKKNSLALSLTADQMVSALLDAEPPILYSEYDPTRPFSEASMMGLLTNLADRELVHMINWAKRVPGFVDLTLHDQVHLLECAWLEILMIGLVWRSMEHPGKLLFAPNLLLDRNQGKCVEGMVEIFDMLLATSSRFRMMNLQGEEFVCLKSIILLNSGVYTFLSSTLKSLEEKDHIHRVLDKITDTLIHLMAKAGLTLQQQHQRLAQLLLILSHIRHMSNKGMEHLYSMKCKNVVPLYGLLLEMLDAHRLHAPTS
His6-ERα298-554 Y537S mutant (ERα ligand-binding domain), sequence (P03372 298-554 Y537S): as the sequence (P03372 298-554 D538G) above, with Y240S, G241D counted along it
His6-ERα298-554 WT (ERα ligand-binding domain), sequence (P03372 298-554): as the sequence (P03372 298-554 D538G) above, with G241D counted along it
ERα in MCF7 cells, sequence (P03372 whole entry): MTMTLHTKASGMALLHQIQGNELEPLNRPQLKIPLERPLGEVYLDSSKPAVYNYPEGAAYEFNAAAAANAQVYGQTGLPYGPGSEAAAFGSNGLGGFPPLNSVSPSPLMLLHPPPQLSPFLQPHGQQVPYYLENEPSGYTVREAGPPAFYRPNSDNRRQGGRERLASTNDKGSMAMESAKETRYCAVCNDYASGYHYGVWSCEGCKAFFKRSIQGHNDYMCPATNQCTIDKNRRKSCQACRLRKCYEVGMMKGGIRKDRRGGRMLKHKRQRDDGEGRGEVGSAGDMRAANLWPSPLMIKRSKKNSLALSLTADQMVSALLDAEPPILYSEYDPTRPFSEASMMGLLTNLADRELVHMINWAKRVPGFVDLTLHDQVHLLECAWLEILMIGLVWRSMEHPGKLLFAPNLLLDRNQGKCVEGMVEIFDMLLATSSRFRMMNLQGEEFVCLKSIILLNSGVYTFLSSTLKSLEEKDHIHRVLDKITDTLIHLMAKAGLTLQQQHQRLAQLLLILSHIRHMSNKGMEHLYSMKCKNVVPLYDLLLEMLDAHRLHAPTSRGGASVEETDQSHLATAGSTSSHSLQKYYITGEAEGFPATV

For `CCOc1ccc(C2=C(c3ccc(O[C@H]4CCN(CCCF)C4)cc3)c3ccc(O)cc3SC2)c(C)c1` [Example 39, 3-(4-ethoxy-2-methyl-phenyl)-4-[4-[(3S)-1-(3-fluoropropyl)pyrrolidin-3-yl]oxyphenyl]-2H-thiochromen-7-ol], the IC50 in test [1] was determined as 0.5 nM; in test [2] (setting [7]), 221 nM; in test [3] (setting [7]) it was 9 nM; in test [4] (setting [7]) it was 127 nM; in test [5], 2 nM; in test [6], 0.4 nM. The DC50 at ERα in MCF7 cells is 0.7 nM. The “% Degradation at 3 μM” value on ERα in MCF7 cells amounted to 86%.

For the compound `CCOc1ccc(C2=C(c3ccc(O[C@H]4CCN(CCCF)C4)cc3)c3ccc(O)cc3SC2)c(F)n1` [Example 27, 3-(6-ethoxy-2-fluoro-3-pyridyl)-4-[4-[(3S)-1-(3-fluoropropyl)pyrrolidin-3-yl]oxyphenyl]-2H-thiochromen-7-ol], the IC50 in test [1] was determined as 2 nM; in test [2] (setting [7]) it was 38 nM; in test [3] (setting [7]), 2 nM; in test [4] (setting [7]), 21 nM; in test [5], 6 nM; in test [6], 0.4 nM. Further, the DC50 at ERα in MCF7 cells is 0.6 nM. The “% Degradation at 3 μM” value on ERα in MCF7 cells was found to be 94%.

`CCN(CC)c1ccc(C2=C(c3ccc(O[C@H]4CCN(CCCF)C4)cc3)c3ccc(O)cc3SCC2)c(F)c1` [Example 224, 4-[4-(diethylamino)-2-fluoro-phenyl]-5-[4-[(3S)-1-(3-fluoropropyl)pyrrolidin-3-yl]oxyphenyl]-2,3-dihydro-1-benzothiepin-8-ol]: the IC50 in test [1] worked out at 8 nM; in test [2] (setting [7]), 1480 nM; in test [3] (setting [7]) it was 71 nM; in test [4] (setting [7]) it was 1030 nM; in test [5], 83 nM; in test [6], 3 nM. For the same compound, the DC50 on ERα in MCF7 cells turned out to be 3 nM. At ERα in MCF7 cells, the “% Degradation at 3 μM” value is on record as 85%.

`Oc1ccc2c(c1)SCC(c1ccc(SC(F)(F)F)cc1)=C2c1ccc(O[C@H]2CCN(CCCF)C2)cc1` [Example 66, 4-[4-[(3S)-1-(3-fluoropropyl)pyrrolidin-3-yl]oxyphenyl]-3-[4-(trifluoromethylsulfanyl)phenyl]-2H-thiochromen-7-ol]: the IC50 in test [1] is 2 nM; in test [2] (protocol with 3 nM estradiol), 1800 nM; in test [3] (protocol with 3 nM estradiol), 59 nM; in test [4] (protocol with 3 nM estradiol) it was 362 nM; in test [5], 8 nM; in test [6] it was 2 nM. Also, the DC50 on ERα in MCF7 cells is 0.2 nM. Moreover, on ERα in MCF7 cells, the “% Degradation at 3 μM” value is 84%.

With `CCOc1ccc(C2=C(c3cnc(O[C@H]4CCN(CCCF)C4)nc3)c3ccc(O)cc3CCC2)c(F)c1F` [Example 246, 6-(4-ethoxy-2,3-difluoro-phenyl)-5-[2-[(3S)-1-(3-fluoropropyl)pyrrolidin-3-yl]oxypyrimidin-5-yl]-8,9-dihydro-7H-benzo[7]annulen-2-ol], the IC50 in test [1] amounted to 0.4 nM; in test [2] (setting [7]) it was 42 nM; in test [3] (setting [7]) it was 2 nM; in test [4] (setting [7]), 26 nM; in test [5], 7 nM; in test [6] it was 0.4 nM. The DC50 at ERα in MCF7 cells is 0.5 nM. For the same compound, the “% Degradation at 3 μM” value at ERα in MCF7 cells came to 82%.

Regarding `Cc1ccc(C2=C(c3ccc(O[C@H]4CCN(CCCF)C4)cc3)c3ccc(O)cc3[S+]([O-])C2)c(F)c1` (stereo partly drawn) [Example 57, 3-(2-fluoro-4-methyl-phenyl)-4-[4-[(3S)-1-(3-fluoropropyl)pyrrolidin-3-yl]oxyphenyl]-1-oxo-2H-thiochromen-7-ol], the IC50 in test [1] was > 999 nM; in test [2] (setting [7]), > 4000 nM; in test [3] (setting [7]), 1070 nM; in test [4] (setting [7]), > 4000 nM; in test [5], > 999 nM; in test [6] it was 33 nM. For the same compound, the DC50 at ERα in MCF7 cells is 3 nM. For the same compound, on ERα in MCF7 cells, the “% Degradation at 3 μM” value is on record as 89%.

For the compound `Oc1ccc2c(c1)SCC(c1ccc(Cl)cc1F)=C2c1ccc(O[C@H]2CCN(CCCF)C2)cc1` [Example 18, 3-(4-chloro-2-fluoro-phenyl)-4-[4-[(3S)-1-(3-fluoropropyl)pyrrolidin-3-yl]oxyphenyl]-2H-thiochromen-7-ol], the IC50 in test [1] was 1 nM; in test [2] (protocol with 3 nM estradiol), 39 nM; in test [3] (protocol with 3 nM estradiol) it was 9 nM; in test [4] (protocol with 3 nM estradiol), 15 nM; in test [5], 7 nM; in test [6] it was 0.5 nM. Also, the DC50 on ERα in MCF7 cells is 0.6 nM. The “% Degradation at 3 μM” value on ERα in MCF7 cells was 90%.

As for `CCOc1ccc(C2=C(c3ccc(O[C@H]4CCN(CCCF)C4)cc3)c3cc(F)c(O)cc3OCC2)c(C)c1` [Example 155, 4-(4-ethoxy-2-methyl-phenyl)-7-fluoro-5-[4-[(3S)-1-(3-fluoropropyl)pyrrolidin-3-yl]oxyphenyl]-2,3-dihydro-1-benzoxepin-8-ol], the IC50 in test [1] was 1 nM; in test [2] (setting [7]), 365 nM; in test [3] (setting [7]), 21 nM; in test [4] (setting [7]) it was 228 nM; in test [5], 6 nM; in test [6], 0.4 nM. The DC50 on ERα in MCF7 cells came to 0.2 nM. In addition, the “% Degradation at 3 μM” value at ERα in MCF7 cells is reported as 81%.

Take `Oc1ccc2c(c1)SCC(c1ccc(OCF)cc1)=C2c1ccc(O[C@H]2CCN(CCCF)C2)cc1` [Example 60, 3-[4-(fluoromethoxy)phenyl]-4-[4-[(3S)-1-(3-fluoropropyl)pyrrolidin-3-yl]oxyphenyl]-2H-thiochromen-7-ol]: the IC50 in test [1] stood at 0.4 nM; in test [2] (setting [7]), 215 nM; in test [3] (setting [7]) it was 9 nM; in test [4] (setting [7]), 103 nM; in test [5], 3 nM; in test [6], 0.5 nM. The DC50 at ERα in MCF7 cells came to 0.2 nM. Also, the “% Degradation at 3 μM” value on ERα in MCF7 cells came out at 73%.

For `CC(C)(C)OC(=O)Nc1ccc(C2=C(c3ccc(O[C@H]4CCN(CCCF)C4)cc3)c3ccc(O)cc3SC2)c(F)n1` [Example 65, tert-butyl N-[6-fluoro-5-[4-[4-[(3S)-1-(3-fluoropropyl)pyrrolidin-3-yl]oxyphenyl]-7-hydroxy-2H-thiochromen-3-yl]-2-pyridyl]carbamate], the IC50 in test [1] is 21 nM; in test [2] (setting [7]), > 4000 nM; in test [3] (setting [7]), 1220 nM; in test [4] (setting [7]), > 4000 nM; in test [5] it was 572 nM; in test [6] it was 21 nM. For the same compound, at ERα in MCF7 cells, the DC50 was 38 nM. Besides, the “% Degradation at 3 μM” value at ERα in MCF7 cells came to 71%.

`[2H]C([2H])([2H])Oc1ccc(C2=C(c3ccc(O[C@H]4CCN(CCCF)C4)cc3)c3ccc(O)cc3SC2)c(F)c1` [Example 34, 4-[4-[(3S)-1-(3-fluoropropyl)pyrrolidin-3-yl]oxyphenyl]-3-[2-fluoro-4-(trideuteriomethoxy)phenyl]-2H-thiochromen-7-ol]: the IC50 in test [1] was 0.5 nM; in test [2] (setting [7]) it was 83 nM; in test [3] (setting [7]), 4 nM; in test [4] (setting [7]), 46 nM; in test [5], 4 nM; in test [6], 0.5 nM. Besides, on ERα in MCF7 cells, the DC50 was 0.4 nM. Moreover, the “% Degradation at 3 μM” value on ERα in MCF7 cells was found to be 85%.

In the case of `Cc1ccc(C2=C(c3cnc(O[C@H]4CCN(CCCF)C4)nc3)c3ccc(O)cc3SC2)c(F)c1` [Example 77, 3-(2-fluoro-4-methyl-phenyl)-4-[2-[(3S)-1-(3-fluoropropyl)pyrrolidin-3-yl]oxypyrimidin-5-yl]-2H-thiochromen-7-ol], the IC50 in test [1] amounted to 5 nM; in test [2] (setting [7]), 323 nM; in test [3] (setting [7]), 16 nM; in test [4] (setting [7]) it was 197 nM; in test [5] it was 29 nM; in test [6], 2 nM. The DC50 at ERα in MCF7 cells was 1 nM. At ERα in MCF7 cells, the “% Degradation at 3 μM” value came out at 91%.

`[2H]C([2H])([2H])Oc1ccc(C2=C(c3ccc(O[C@H]4CCN(CCCF)C4)cc3)c3ccc(O)cc3SCC2)c(F)c1` [Example 209, 5-[4-[(3S)-1-(3-fluoropropyl)pyrrolidin-3-yl]oxyphenyl]-4-[2-fluoro-4-(trideuteriomethoxy)phenyl]-2,3-dihydro-1-benzothiepin-8-ol]: the IC50 in test [1] came to 0.7 nM; in test [2] (setting [7]), 35 nM; in test [3] (setting [7]) it was 2 nM; in test [4] (setting [7]), 20 nM; in test [5] it was 4 nM; in test [6], 0.3 nM. Besides, on ERα in MCF7 cells, the DC50 was 0.4 nM. The “% Degradation at 3 μM” value on ERα in MCF7 cells is recorded as 92%.
